Results on twelve compounds are retold here after patent US8546404B2, “Compounds that are ERK inhibitors” (Merck Sharp & Dohme, priority 2005, dated 2013).

The target of the assay is fully phosphorylated, active Mouse ERK2 protein (Mus musculus (Mouse), UniProt P63085). Briefly: Active ERK2 Assay (IMAP format). In kind it is biochemical. As to the method:
Activated ERK2 activity was also determined in the IMAP assay format using the procedure outlined above. […] Reactions proceeded for 30 minutes before termination by addition of 60 μl IMAP detection beads in binding buffer. Plates were read as above after 30 minute binding equilibration.

Molecules are shown by their SMILES. Several values for one entry are separate records, joined by “and”; a condition that tells them apart may be missing. Equal values may be shown once. Read-outs that look alike come from different tables or passages of the source.

Chain of fully phosphorylated, active Mouse ERK2 protein (P63085 whole entry): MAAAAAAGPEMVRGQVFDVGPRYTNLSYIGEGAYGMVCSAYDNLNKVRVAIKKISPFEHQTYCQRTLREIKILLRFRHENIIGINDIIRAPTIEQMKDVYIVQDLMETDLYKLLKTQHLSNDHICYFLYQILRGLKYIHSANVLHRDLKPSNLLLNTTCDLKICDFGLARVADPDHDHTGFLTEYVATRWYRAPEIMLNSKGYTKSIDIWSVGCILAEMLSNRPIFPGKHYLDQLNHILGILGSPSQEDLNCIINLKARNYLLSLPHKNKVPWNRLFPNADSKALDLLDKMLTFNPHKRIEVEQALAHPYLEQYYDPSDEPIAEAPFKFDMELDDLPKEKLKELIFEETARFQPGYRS

For the compound `O=C(Nc1ccc2[nH]nc(-c3ccc(F)cc3)c2c1)[C@@H]1CCN(CC(=O)N2CCN(c3ccc(-c4ncccn4)cc3)CC2)C1` (stereo in doubt) [Example 1, 1-{2-Oxo-2-[4-(4-pyrimidin-2-yl-phenyl)-piperazin-1-yl]-ethyl}-pyrrolidine-3-carboxylic acid [3-(4-fluoro-phenyl)-1H-indazol-5-yl]-amide], the IC50 (read-out: AERK2 IC50) was in the range of 0.16 to 18 nM.

Regarding `O=C(Nc1ccc2[nH]nc(-c3c[nH]cn3)c2c1)[C@@H]1CCN(CC(=O)N2CCN(c3ccc(-c4ncccn4)cc3)CC2)C1` (stereo in doubt) [Example 61, 1-{2-Oxo-2-[4-(4-pyrimidin-2-yl-phenyl)-piperazin-1-yl]-ethyl}-pyrrolidine-3-carboxylic acid [3-(1H-imidazol-4-yl)-1H-indazol-5-yl]-amide], the IC50 (read-out: AERK2 IC50) fell in the range of 0.16 to 18 nM.

In the case of `CC(=O)N/N=C(\C)C1(C(=O)Nc2ccc3[nH]nc(-c4ccc(F)cc4)c3c2)CCN(CC(=O)N2CCN(c3ccc(-c4ncccn4)cn3)C[C@H]2C)C1` (stereo in doubt) [Example 358, 3-[1-(Acetyl-hydrazono)-ethyl]-1-{2-[2-methyl-4-(5-pyrimidin-2-yl-pyridin-2-yl)-piperazin-1-yl]-2-oxo-ethyl}-pyrrolidine-3-carboxylic acid [3-(4-fluoro-phenyl)-1H-indazol-5-yl]-amide], the IC50 (read-out: AERK2 IC50) was 0.16 to 18 nM.

Consider `Cc1cnc(-c2ccc(N3CCN(C(=O)CN4CCC(NC=O)(C(=O)Nc5ccc6[nH]nc(-c7ccc(F)cc7)c6c5)C4)[C@H](C)C3)cc2)nc1` (stereo in doubt) [Example 362, 3-Formylamino-1-(2-{2-methyl-4-[4-(5-methyl-pyrimidin-2-yl)-phenyl]-piperazin-1-yl}-2-oxo-ethyl)-pyrrolidine-3-carboxylic acid [3-(4-fluoro-phenyl)-1H-indazol-5-yl]-amide], for which, under “read-out: AERK2 IC50”, the IC50 was 0.16 to 18 nM.

`CCNc1nnc(-c2ccc(C3CCN(C(=O)CN4CC[C@@](OC)(C(=O)Nc5ccc6[nH]nc(-c7ccc(F)cc7)c6c5)C4)CC3)cc2)o1` (stereo in doubt) [Example 623, 1-(2-{4-[4-(5-Ethylamino-[1,3,4]oxadiazol-2-yl)-phenyl]-piperidin-1-yl}-2-oxo-ethyl)-3-methoxy-pyrrolidine-3-carboxylic acid [3-(4-fluoro-phenyl)-1H-indazol-5-yl]-amide]: under “read-out: AERK2 IC50”, the IC50 lay in the range of 0.16 to 18 nM.

As for `N#Cc1cccc(-c2n[nH]c3ccc(NC(=O)[C@@H]4CCN(CC(=O)N5CCN(c6ccc(-c7ncccn7)cc6)CC5)C4)cc23)c1` [Example 2, 1-{2-Oxo-2-[4-(4-pyrimidin-2-yl-phenyl)-piperazin-1-yl]-ethyl}-pyrrolidine-3-carboxylic acid[3-(3-cyano-phenyl)-1H-indazol-5-yl]-amide], the IC50 (read-out: AERK2 IC50) was 0.16 to 18 nM.

For the compound `O=C(Nc1ccc2[nH]nc(-c3ccncc3)c2c1)[C@@H]1CCN(CC(=O)N2CCN(c3ccc(-c4ncccn4)cc3)CC2)C1` [Example 6], for the setting “AERK2 IC50”, the IC50 was 0.8 nM.

Consider `CCCCNC(=O)c1n[nH]c2ccc(NC(=O)[C@@H]3CCN(CC(=O)N4CCN(c5ccc(-c6ncccn6)cc5)CC4)C3)cc12` [Example 86], for which the IC50 (read-out: AERK2 IC50) fell in the range of 0.16 to 18 nM.

For the compound `O=C(Nc1ccc2[nH]nc(-c3ccc(F)cc3)c2c1)C1CCN(CC(=O)N2CCN(c3ccc(-c4ncccn4)cn3)CC2)C1` (stereo not drawn) [Example 98], the IC50 (read-out: AERK2 IC50) was in the range of 0.16 to 18 nM.

As for `C[C@@H]1CN(c2ccc(-c3ncccn3)cn2)CCN1C(=O)CN1CCC(C(=O)Nc2ccc3[nH]nc(-c4ccc(F)cc4)c3c2)C1` (stereo partly drawn) [Example 100], the IC50 (read-out: AERK2 IC50) was 0.16 to 18 nM and 0.16 to 1.5 nM.

As to `Cc1cnc(-c2ccc(N3CCN(C(=O)CN4CCC(C(=O)Nc5ccc6[nH]nc(-c7ccc(F)cc7)c6c5)C4)[C@H](C)C3)cc2)nc1` (stereo partly drawn) [Example 120], the IC50 (read-out: AERK2 IC50) is 0.16 to 18 nM.

With `COCC1(C(=O)Nc2ccc3[nH]nc(-c4ccc(F)cc4)c3c2)CCN(CC(=O)N2CCN(c3ccc(-c4ncccn4)cc3)CC2)C1` (stereo not drawn) [Example 125, 3-methoxymethyl-1-{2-oxo-2-[4-(4-pyrimidin-2-yl-phenyl)-piperazin-1-yl]-ethyl}-pyrrolidine-3-carboxylic acid [3-(4-fluoro-phenyl)-1H-indazol-5-yl]-amide], the IC50 (read-out: AERK2 IC50) lay within 0.16 to 18 nM.

One may read the IC50 as the concentration that inhibits the measured activity by half.
